Data set [1] addresses T1, Urotensin-2 receptor (Homo sapiens, UniProt Q9UKP6).
T1 sequence (Q9UKP6 whole entry): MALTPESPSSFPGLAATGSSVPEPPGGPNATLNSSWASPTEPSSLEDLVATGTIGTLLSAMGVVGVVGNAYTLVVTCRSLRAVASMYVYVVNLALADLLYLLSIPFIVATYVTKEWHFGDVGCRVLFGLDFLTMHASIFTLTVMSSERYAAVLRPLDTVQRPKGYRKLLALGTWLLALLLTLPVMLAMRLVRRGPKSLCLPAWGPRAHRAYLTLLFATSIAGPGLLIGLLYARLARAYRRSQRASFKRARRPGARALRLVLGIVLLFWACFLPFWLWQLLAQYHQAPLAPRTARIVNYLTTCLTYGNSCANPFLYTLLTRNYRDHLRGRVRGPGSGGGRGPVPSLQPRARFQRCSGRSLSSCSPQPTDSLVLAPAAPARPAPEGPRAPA
Put plainly: Displacement of [125I]urotensin-2 from human recombinant UT receptor expressed in CHO-K1 cells by scintillation counting method. The class given is cell-based. For orientation: Displacement assays read how much labelled ligand stays bound in the presence of the test substance.

Data set [2] addresses T2, Urotensin-2 receptor (Rattus norvegicus) (UniProt P49684).
T2 sequence (whole entry): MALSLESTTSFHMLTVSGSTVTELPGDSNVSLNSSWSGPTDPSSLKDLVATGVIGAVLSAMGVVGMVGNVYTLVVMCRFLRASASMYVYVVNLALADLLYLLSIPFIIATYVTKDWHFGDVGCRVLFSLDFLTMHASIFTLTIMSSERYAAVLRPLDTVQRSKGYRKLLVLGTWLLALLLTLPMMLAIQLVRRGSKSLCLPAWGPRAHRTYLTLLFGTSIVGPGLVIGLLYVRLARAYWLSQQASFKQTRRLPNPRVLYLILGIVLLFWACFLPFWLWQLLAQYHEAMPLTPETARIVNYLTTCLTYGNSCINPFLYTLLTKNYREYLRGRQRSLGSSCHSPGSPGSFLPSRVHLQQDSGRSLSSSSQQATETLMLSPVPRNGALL
Description: Agonist activity at UT receptor in rat aorta assessed as contraction relative to urotensin-2. In kind it is tissue-based.

Data set [3] addresses T3, Urotensin-2 receptor (Rattus norvegicus, UniProt P49684).
T3 sequence (P49684 whole entry): T2 sequence (whole entry)
Put plainly: Agonist activity at UT receptor in rat aorta assessed as contraction. In kind it is tissue-based.

Data set [4] in a line: Stability in 25% fetal calf serum assessed as parent compound remaining at 80 uM at 37 degC after 16 hrs by RP-HPLC-UV based detection assay. Conditions: cattle, read-out: Stability. The class given is ADME, Bos taurus.
A short description of data set [5]: Stability in 25% fetal calf serum assessed as parent compound remaining at 80 uM at 37 degC after 36 hrs by RP-HPLC-UV based detection assay. The class given is ADME, Bos taurus. Conditions: cattle, read-out: Stability.

Peptide text beside a SMILES is read from it.

One may read the Ki as a dissociation constant, usually derived from enzyme kinetics or from competition with a known ligand. The Emax is the greatest response seen or fitted, relative to the assay's reference. One may read the EC50 as the midpoint of the concentration-response curve. For the compound `CC(C)[C@H](NC(=O)[C@@H]1CSSC(C)(C)[C@H](NC(=O)[C@@H](N)CC(=O)O)C(=O)N[C@@H](Cc2ccccc2)C(=O)N[C@H](Cc2c[nH]c3ccccc23)C(=O)N[C@@H](CCCN)C(=O)N[C@@H](Cc2nc3ccccc3s2)C(=O)N1)C(=O)O`, the Ki on Urotensin-2 receptor [1] was 12.9 nM. Further, the Emax in data set [2] was determined as 57%. For the same compound, on Urotensin-2 receptor [3], the EC50 was 33.9 nM.

As for `CC(C)[C@H](NC(=O)[C@@H]1CSSC(C)(C)[C@H](NC(=O)[C@@H](N)CC(=O)O)C(=O)N[C@@H](Cc2ccccc2)C(=O)N[C@H](Cc2c[nH]c3ccccc23)C(=O)N[C@@H](CCCN)C(=O)N[C@@H](Cc2cccc3ccccc23)C(=O)N1)C(=O)O`, the Ki on Urotensin-2 receptor [1] was 6.46 nM. For the same compound, in data set [2], the Emax was determined as 37%. Moreover, at Urotensin-2 receptor [3], the EC50 was 18.2 nM.

For the compound `CC(C)[C@H](NC(=O)[C@@H]1CSSC[C@H](NC(=O)[C@@H](N)CC(=O)O)C(=O)N[C@@H](Cc2ccccc2)C(=O)N[C@@H](Cc2c[nH]c3ccccc23)C(=O)N[C@@H](CCCCN)C(=O)N[C@@H](Cc2ccc(O)cc2)C(=O)N1)C(=O)O` (HELM PEPTIDE1{D.C.F.W.K.Y.C.V}$PEPTIDE1,PEPTIDE1,2:R3-7:R3$$$V2.0), at Urotensin-2 receptor [1], the Ki is 0.251 nM. Moreover, the remaining at 16 h, 80 µM in data set [4] was less than 50%. For the same compound, in data set [2], the Emax worked out at 100%. Moreover, at Urotensin-2 receptor [3], the EC50 was 3.63 nM.

With `CC(C)[C@H](NC(=O)[C@@H]1CSSC(C)(C)[C@H](NC(=O)[C@@H](N)CC(=O)O)C(=O)N[C@@H](Cc2ccccc2)C(=O)N[C@@H](Cc2c[nH]c3ccccc23)C(=O)N[C@@H](CCCCN)C(=O)N[C@@H](Cc2ccc(Cl)cc2)C(=O)N1)C(=O)O` (HELM PEPTIDE1{D.[Pen].F.W.K.[O=C([C@H](Cc1ccc(Cl)cc1)N[*:1])[*:2]].C.V}$PEPTIDE1,PEPTIDE1,2:R3-7:R3$$$V2.0), the inhibition constant (Ki) at Urotensin-2 receptor [1] is 1.23 nM. Further, in data set [2], the maximum response (Emax) is 85%. The concentration giving a half-maximal response (EC50) at Urotensin-2 receptor [3] was 0.813 nM.

`CC(C)[C@H](NC(=O)[C@@H]1CSSC(C)(C)[C@H](NC(=O)[C@@H](N)CC(=O)O)C(=O)N[C@@H](Cc2ccccc2)C(=O)N[C@@H](Cc2c[nH]c3ccccc23)C(=O)N[C@@H](CCCCN)C(=O)N[C@@H](Cc2ccc3ccccc3c2)C(=O)N1)C(=O)O` (HELM PEPTIDE1{D.[Pen].F.W.K.[O=C([C@H](Cc1ccc2ccccc2c1)N[*:1])[*:2]].C.V}$PEPTIDE1,PEPTIDE1,2:R3-7:R3$$$V2.0): the Ki at Urotensin-2 receptor [1] was 2 nM. Further, the Emax in data set [2] amounted to 85%. Moreover, the EC50 on Urotensin-2 receptor [3] was 0.724 nM.

Consider `CC(C)[C@H](NC(=O)[C@@H]1CSSC(C)(C)[C@H](NC(=O)[C@@H](N)CC(=O)O)C(=O)N[C@@H](Cc2ccccc2)C(=O)N[C@H](Cc2c[nH]c3ccccc23)C(=O)N[C@@H](CCCN)C(=O)N[C@@H](Cc2ccc(O)cc2)C(=O)N1)C(=O)O` [URANTIDE] (HELM PEPTIDE1{D.[Pen].F.[dW].[Orn].Y.C.V}$PEPTIDE1,PEPTIDE1,2:R3-7:R3$$$V2.0), for which the remaining at 36 h, 80 µM in data set [5] is greater than 50%.

Consider `CC(C)[C@H](NC(=O)[C@@H]1CSSC(C)(C)[C@H](NC(=O)[C@@H](N)CC(=O)O)C(=O)N[C@@H](Cc2ccccc2)C(=O)N[C@@H](Cc2c[nH]c3ccccc23)C(=O)N[C@@H](CCCCN)C(=O)N[C@@H](Cc2ccc(O)cc2)C(=O)N1)C(=O)O` (HELM PEPTIDE1{D.[Pen].F.W.K.Y.C.V}$PEPTIDE1,PEPTIDE1,2:R3-7:R3$$$V2.0), for which the remaining at 36 h, 80 µM in data set [5] was found to be 45%. Besides, the Ki on Urotensin-2 receptor [1] was 0.2 nM. In data set [4], the remaining at 16 h, 80 µM stood at 65%. Besides, the Emax in data set [2] was 95%. Further, the EC50 on Urotensin-2 receptor [3] is 0.398 nM.

Take `CC(C)[C@H](NC(=O)[C@@H]1CSSC(C)(C)[C@H](NC(=O)[C@@H](N)CC(=O)O)C(=O)N[C@@H](Cc2ccccc2)C(=O)N[C@H](Cc2c[nH]c3ccccc23)C(=O)N[C@@H](CCCN)C(=O)N[C@@H](Cc2ccc3ccccc3c2)C(=O)N1)C(=O)O`: the inhibition constant Ki on Urotensin-2 receptor [1] was 0.724 nM. The Emax in data set [2] is 13%. In addition, on Urotensin-2 receptor [3], the EC50 is 3.8 nM.

As for `CC(C)[C@H](NC(=O)[C@@H]1CSSC(C)(C)[C@H](NC(=O)[C@@H](N)CC(=O)O)C(=O)N[C@@H](Cc2ccccc2)C(=O)N[C@H](Cc2c[nH]c3ccccc23)C(=O)N[C@@H](CCCN)C(=O)N[C@@H](Cc2ccc(Cl)cc2)C(=O)N1)C(=O)O`, the Ki at Urotensin-2 receptor [1] was 1.05 nM. Moreover, the Emax in data set [2] turned out to be 13%. Further, the concentration for a half-maximal effect (EC50) on Urotensin-2 receptor [3] is 2.69 nM.

As for `CC(C)[C@H](NC(=O)[C@@H]1CSSC(C)(C)[C@H](NC(=O)[C@@H](N)CC(=O)O)C(=O)N[C@@H](Cc2ccccc2)C(=O)N[C@@H](Cc2c[nH]c3ccccc23)C(=O)N[C@@H](CCCCN)C(=O)N[C@@H](Cc2ccc(Cl)c(Cl)c2)C(=O)N1)C(=O)O` (HELM PEPTIDE1{D.[Pen].F.W.K.[O=C([C@H](Cc1ccc(Cl)c(Cl)c1)N[*:1])[*:2]].C.V}$PEPTIDE1,PEPTIDE1,2:R3-7:R3$$$V2.0), the remaining at 36 h, 80 µM in data set [5] is greater than 50%. At Urotensin-2 receptor [1], the Ki is 0.776 nM. The remaining at 16 h, 80 µM in data set [4] was greater than 70%. Further, the Emax in data set [2] turned out to be 102%. At Urotensin-2 receptor [3], the EC50 was 0.0126 nM.

As to `CC(C)[C@H](NC(=O)[C@@H]1CSSC(C)(C)[C@H](NC(=O)[C@@H](N)CC(=O)O)C(=O)N[C@@H](Cc2ccccc2)C(=O)N[C@@H](Cc2c[nH]c3ccccc23)C(=O)N[C@@H](CCCCN)C(=O)N[C@@H](Cc2nc3ccccc3s2)C(=O)N1)C(=O)O` (HELM PEPTIDE1{D.[Pen].F.W.K.[O=C([C@H](Cc1nc2ccccc2s1)N[*:1])[*:2]].C.V}$PEPTIDE1,PEPTIDE1,2:R3-7:R3$$$V2.0), the Ki at Urotensin-2 receptor [1] was 1.74 nM. Besides, the Emax in data set [2] amounted to 89%. For the same compound, the EC50 on Urotensin-2 receptor [3] is 0.0195 nM.

As for `CC(C)[C@H](NC(=O)[C@@H]1CSSC(C)(C)[C@H](NC(=O)[C@@H](N)CC(=O)O)C(=O)N[C@@H](Cc2ccccc2)C(=O)N[C@@H](Cc2c[nH]c3ccccc23)C(=O)N[C@@H](CCCCN)C(=O)N[C@@H](Cc2cccc3ccccc23)C(=O)N1)C(=O)O` (HELM PEPTIDE1{D.[Pen].F.W.K.[O=C([C@H](Cc1cccc2ccccc12)N[*:1])[*:2]].C.V}$PEPTIDE1,PEPTIDE1,2:R3-7:R3$$$V2.0), at Urotensin-2 receptor [1], the Ki is 0.398 nM. The Emax in data set [2] stood at 86%. Also, at Urotensin-2 receptor [3], the EC50 was 5.01 nM.

As to `CC(C)[C@H](NC(=O)[C@@H]1CSSC(C)(C)[C@H](NC(=O)[C@@H](N)CC(=O)O)C(=O)N[C@@H](Cc2ccccc2)C(=O)N[C@H](Cc2c[nH]c3ccccc23)C(=O)N[C@@H](CCCN)C(=O)N[C@@H](Cc2ccc(Cl)c(Cl)c2)C(=O)N1)C(=O)O`, the Ki on Urotensin-2 receptor [1] was 2.24 nM. For the same compound, in data set [2], the Emax was determined as 26%. Besides, the EC50 on Urotensin-2 receptor [3] was 12.9 nM.

As for `CC(C)[C@H](NC(=O)[C@@H]1CSSC(C)(C)[C@H](NC(=O)[C@@H](N)CC(=O)O)C(=O)N[C@@H](Cc2ccccc2)C(=O)N[C@@H](Cc2c[nH]c3ccccc23)C(=O)N[C@@H](CCCCN)C(=O)N[C@@H](Cc2ccc([N+](=O)[O-])cc2)C(=O)N1)C(=O)O` (HELM PEPTIDE1{D.[Pen].F.W.K.[O=C([C@H](Cc1ccc([N+](=O)[O-])cc1)N[*:1])[*:2]].C.V}$PEPTIDE1,PEPTIDE1,2:R3-7:R3$$$V2.0), the Ki at Urotensin-2 receptor [1] was 1.78 nM. For the same compound, the Emax in data set [2] was 95%. At Urotensin-2 receptor [3], the EC50 is 0.631 nM.

`CC(C)[C@H](NC(=O)[C@@H]1CSSC(C)(C)[C@H](NC(=O)[C@@H](N)CC(=O)O)C(=O)N[C@@H](Cc2ccccc2)C(=O)N[C@@H](Cc2c[nH]c3ccccc23)C(=O)N[C@@H](CCCCN)C(=O)N[C@@H](Cc2ccc(C#N)cc2)C(=O)N1)C(=O)O` (HELM PEPTIDE1{D.[Pen].F.W.K.[N#Cc1ccc(C[C@H](N[*:1])C(=O)[*:2])cc1].C.V}$PEPTIDE1,PEPTIDE1,2:R3-7:R3$$$V2.0): the Ki at Urotensin-2 receptor [1] was 1.82 nM. For the same compound, in data set [2], the Emax turned out to be 79%. In addition, the EC50 on Urotensin-2 receptor [3] was 1.07 nM.

Turning to `CC(C)[C@H](NC(=O)[C@@H]1CSSC[C@H](NC(=O)[C@H](CC(=O)O)NC(=O)[C@@H]2CCCN2C(=O)[C@@H](NC(=O)[C@@H](N)CCC(=O)O)[C@@H](C)O)C(=O)N[C@@H](Cc2ccccc2)C(=O)N[C@@H](Cc2c[nH]c3ccccc23)C(=O)N[C@@H](CCCCN)C(=O)N[C@@H](Cc2ccc(O)cc2)C(=O)N1)C(=O)O` [UROTENSIN-II], in data set [2], the Emax was found to be 100%. Further, the 50% effective concentration (EC50) on Urotensin-2 receptor [3] was 3.16 nM.

The values are drawn from ChEMBL document CHEMBL3352762 (J Med Chem, 2014).
